From patent US11365202B2, “Antimalarial compounds, process for preparation and their use for drug resistant malaria” (Council of Scientific and Industrial Research, priority 2018, dated 2022) come the findings set out here.

One data set has as its target falcipain-2 (Plasmodium falciparum (isolate 3D7), UniProt Q8I6U4). In words: Fluorometric assay for falcipain-2 activity. The class given is biochemical.
The next data set relates to P. falciparum 3D7. Kind of data set: P. falciparum growth inhibition assay, 3D7 strain. The note with it: Plasmodium falciparum, read-out: EC50 on P. falciparum 3D7. Format: cell-based. Here is the method:
(§1) P. falciparum strain 3D7, Dd2 and 7G8 were cultured in RPMI media (Invitrogen) supplemented with 0.5% albumax and 4% haematocrit using a protocol described previously [Trager and Jensen (Science,1976; 193:673-675)]. Cultures were synchronized by repeated sorbitol treatment following Lambros and Vanderberg (J Parasitol; 1979; 65:418-420). Each growth inhibition assay was performed in triplicate and the experiment was repeated twice. Each well contained 0.5 ml of complete media [RPMI (invitrogen) with 0.5% albumax], 4% haematocrit and the parasitaemia adjusted to ˜1%; the compound added to the parasite cultures to desired final concentrations (0-100 µM) and same amount of solvent (DMSO) was added to the control wells. The cultures were allowed to grow further for 48 h. Parasite growth was assessed by DNA fluorescent dye-binding assay using SYBR green (Sigma) following Smilkstein et al (Antimicrob Agents Chemother.; 2004, 48, 1803-1806). • f) In Vitro Toxicity Assay on CHO Cells

The subject of a further data set is P. falciparum 7G8. In words: P. falciparum growth inhibition assay, 7G8 strain. Format: cell-based. The following applies: Plasmodium falciparum. Here is the method:
as §1

The subject of the next data set is P. falciparum Dd2. Kind of data set: P. falciparum growth inhibition assay, Dd2 strain. Format: cell-based. The note with it: Plasmodium falciparum. As for the experimental part:
as §1

The next data set relates to P. berghei. Kind of data set: In vivo parasiticidal assay with P. berghei mice malaria model. The note with it: for Complete Protection - Mice with complete parasite clearance / Survival after treatment: 4 doses of 12.5 mg/Kg of body weight, infected BALB/c mice. Here is the method:
Five groups of female BALB/c mice, 6-8 weeks of age (four mice/group) were used for testing the in vivo parsiticidal and protective efficacy of different drug treatments. Mice were injected IP with 1×10^6 P. berghei infected erythrocytes. The drug treatment was initiated 5 days after inducing parasitemia; mice in a group were given 4 doses of a compound at 12.5 mg/Kg of body weight. Control mice were given solvent alone. The parasitemia was assessed everyday in thin smears of Giemsa stained RBCs from tail blood of each mouse, by counting parasitized erythrocytes in more than 10,000 erythrocytes. Time of death of the mice in each group was also monitored.

The test system of a further data set is A549 human cells. Kind of data set: In vitro toxicity on mammalian cell culture. Format: cell-based.

Where two headings read alike, the source gives them in different places. A value given as a limit tells only on which side of the number the result lay.

Usually IC50 stands for the concentration that inhibits the measured activity by half. The EC50 is the concentration giving half of the maximal effect.

Chain of falcipain-2 (Q8I6U4 244-484 limits assumed): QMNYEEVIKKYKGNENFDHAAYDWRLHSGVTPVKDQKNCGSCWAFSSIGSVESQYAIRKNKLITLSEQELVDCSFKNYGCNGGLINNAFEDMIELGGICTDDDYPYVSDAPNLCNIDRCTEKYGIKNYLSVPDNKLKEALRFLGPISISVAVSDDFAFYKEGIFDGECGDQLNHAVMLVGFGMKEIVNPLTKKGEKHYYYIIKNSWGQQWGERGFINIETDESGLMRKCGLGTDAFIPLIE
Method for falcipain-2: Recombinant falcipain-2 was prepared according to the method described by Shenai et al. (J Biol Chem.; 2000, 275(37): 29000-10) and Kumar et al. (Biochem Biophys. Res Commun. 2004, 317(1), 38-45) with slight modification. Briefly, Escherichia coli M15 containing pQE30-FP-2 plasmid were grown to mid-log phase and induced with isopropyl-1-thio-b-D-galactopyranoside (IPTG, 0.5 mM) for 5 h at 37° C. Cells were harvested, washed with ice-cold 100 mM Tris-Cl, 10 mM EDTA, pH 7.4, sonicated (12 cycles of 10 s each, with cooling for 10 s between the cycles), and centrifuged at 15,000 rpm for 45 min at 4° C. The pellet was washed twice with 2.5 M urea, 20 mM Tris-Cl2.5% Triton X-100, pH 8.0; centrifuged at 15,000 rpm for 45 min at 4° C.; and solubilized in 6 M guanidine HCl, 20 mM Tris-Cl, 250 mM NaCl, 20 mM imidazole, pH 8.0 (5 ml/g of inclusion body pellet) at RT for 60 min with gentle stirring. Insoluble material was separated by centrifuging at 15,000 rpm for 60 min at 4° C. For the purification of the recombinant protein, the supernatant was incubated overnight at 4° C. with a nickel-nitrilotriacetic acid (Ni-NTA) resin. The resin was loaded on a column and washed with 10 bed volumes each of 6 M guanidine HCl, 20 mM Tris-Cl, 250 mM NaCl, pH 8.0; 8 M urea, 20 mM Tris-Cl, 500 mM NaCl, pH 8.0; and 8 M urea, 20 mM Tris-Cl, 30 mM imidazole, pH 8.0. Bound protein was eluted with 8 M urea, 20 mM Tris-Cl, 1 M imidazole, pH 8.0 and quantified by the Biocinchoninic acid assay. For the refolding, the fractions containing falcipain-2 protein were pooled in ice-cold refolding buffer: 100 mM diluted in Tris-Cl, 1 mM EDTA, 20% glycerol, 250 mM L-arginine, 1 mM GSH, 1 mM GSSG, pH 8.0 was added in a 100 fold dilution. The mixture was incubated with moderate stirring at 4° C. for 24 h, and concentrated to 25 ml using a stirred cell with a 10-kDa cut-off membrane (Pellicon XL device, Millipore) at 4° C. […] The purified and concentrated protein was quantified using Biocinchoninic acid assay. • b) Fluorometric Assay for Falcipain-2 activity:
For screening of falcipain-2 inhibitors, a 96-well plate fluorometric assay was developed following a protocol described by Kumar et al. (Biochem Biophys Res Commun.; 2004, 317(1), 38-45) Briefly, reaction was set up in a 200 ml reaction mixture containing 100 mM NaOAc, 10 mM DTT, 6 mg enzyme and different concentrations of inhibitors, pH 5.5. 10 mM of fluorogenic substrate benzyloxycarbonyl-Phe-Arg-7-amino-4-methylcoumarin hydrochloride (ZFR-AMC) was added, and the release of 7-amino-4-methylcoumarin (AMC) was monitored (excitation 355 nm; emission 460 nm) over 30 min at RT in Perkin Elmer Victor3 multi-label counter. […] The IC50 values were calculated from curve fittings by software Workout V 2.5.

Turning to `CCOP(=O)(/C=C/C(NC(=O)[C@H](CO[C@H]1O[C@@H]2O[C@@]3(C)CC[C@H]4[C@H](C)CC[C@@H]([C@H]1C)[C@@]24OO3)NC(=O)OCc1ccccc1)c1ccccc1)OCC` (mixture of isomers) [Compound 1, Benzyl ((2S)-1-(((E)-3-(diethoxyphosphoryl)-1-phenylallyl)amino)-1-oxo-3-(((3R,5aS,6R, 8aS,9R,10S,12R,12aR)-3,6,9-trimethyldecahydro-12H-3,12-epoxy[1,2]dioxepino[4,3-i]isochromen-10-yl)oxy)propan-2-yl)carbamate], at falcipain-2, the IC50 is above 100000 nM and the “activity against falcipain-2 enzyme (in words)” value (“activity” below) is “inactive”.

With `CCOP(=O)(/C=C/[C@@H](NC(=O)[C@H](CC(C)C)NC(=O)[C@H](CO[C@H]1O[C@@H]2OC3(C)CC[C@H]4[C@H](C)CC[C@@H]([C@H]1C)[C@@]24OO3)NC(=O)OCc1ccccc1)c1ccccc1)OCC` (stereo in doubt) [Compound 3a, Benzyl ((S)-1-(((S)-1-(((R,E)-3-(diethoxyphosphoryl)-1-phenylallyl)amino)-4-methyl-1-oxopentan-2-yl)amino)-1-oxo-3-(((3R,5aS,6R,8aS,9R,10S,12R,12aR)-3,6,9-trimethyldeca hydro-12H-3,12-epoxy[1,2]dioxepino[4,3-i]isochromen-10-yl)oxy)propan-2-yl)carbamate], the EC50 in the data set on P. falciparum 3D7 (3D7, 48 h) came out at 10.9 nM.

In the case of `CCOP(=O)(/C=C/[C@@H](NC(=O)[C@H](CC(C)C)NC(=O)[C@@H]1C[C@@H](O[C@H]2O[C@@H]3OC4(C)CC[C@H]5[C@H](C)CC[C@@H]([C@H]2C)[C@@]35OO4)CN1C(=O)OCc1ccccc1)c1ccccc1)OCC` (stereo in doubt) [Compound 5a, Benzyl (2S,4R)-2-(((S)-1-(((R,E)-3-(diethoxyphosphoryl)-1-phenylallyl)amino)-4-methyl-1-oxopentan-2-yl)carbamoyl)-4-(((3R,5aS,6R,8aS,9R,10S,12R,12aR)-3,6,9-trimethyldeca hydro-12H-3,12-epoxy[1,2]dioxepino[4,3-i]isochromen-10-yl)oxy)pyrrolidine-1-carboxylate], in the data set with P. falciparum 3D7 (3D7, 48 h), the EC50 turned out to be 1.04 nM.

`CCOP(=O)(/C=C/C(NC(=O)[C@@H]1C[C@@H](O[C@H]2O[C@@H]3OC4(C)CC[C@H]5[C@H](C)CC[C@@H]([C@H]2C)[C@@]35OO4)CN1C(=O)OCc1ccccc1)c1ccccc1)OCC` (stereo in doubt) [Compound 4, Benzyl (2S,4R)-2-(((E)-3-(diethoxyphosphoryl)-1-phenylallyl)carbamoyl)-4-(((3R,5aS, 6R,8aS,9R,10S,12R,12aR)-3,6,9-trimethyldecahydro-12H-3,12-epoxy[1,2]dioxepino[4,3-i]isochromen-10-yl)oxy)pyrrolidine-1-carboxylate]: the “activity” value at falcipain-2 is “inactive”.

As for `C[C@@H]1CC[C@H]2[C@@H](C)C(=O)O[C@@H]3O[C@@]4(C)CC[C@@H]1[C@]32OO4` [Artemisinin, reference compound], the half-maximal effective concentration (EC50) is around 27 nM in the data set with P. falciparum 3D7 (3D7, chloroquine-sensitive strain, in vitro culture, 48 h); around 18 nM in the data set with P. falciparum 7G8 (7G8, Chloroquine and Pyrimethamine resistant strain, in vitro culture, read-out: EC50 on P. falciparum 7G8); around 15 nM in the data set on P. falciparum Dd2 (DD2, Chloroquine, Pyrimethamine and Mefloquine resistant strain, in vitro culture, read-out: EC50 on P. falciparum Dd2). Further, the “Complete Protection - Mice with complete parasite clearance” value in the data set on P. berghei is on record as 0% of treated mice. This molecule also had a Survival after treatment in the data set on P. berghei of 15 to 25 days.

`CCOP(=O)(/C=C/C(NC(=O)[C@H](Cc1ccccc1)NC(=O)[C@H](CO[C@H]1O[C@@H]2O[C@@]3(C)CC[C@H]4[C@H](C)CC[C@@H]([C@H]1C)[C@@]24OO3)NC(=O)OCc1ccccc1)c1ccccc1)OCC` (mixture of isomers) [Compound 2, Benzyl ((2S)-1-(((2S)-1-(((E)-3-(diethoxyphosphoryl)-1-phenylallyl)amino)-1-oxo-3-phenylpropan-2-yl)amino)-1-oxo-3-(((3R,5aS,6R,8aS,9R,10S,12R,12 aR)-3,6,9-trimethyldeca hydro-12H-3,12-epoxy[1,2]dioxepino[4,3-i]isochromen-10-yl)oxy)propan-2-yl)carbamate]: the EC50 in the data set on P. falciparum 3D7 (3D7, 48 h) amounted to 2.7 nM; with P. falciparum 7G8 (7G8, read-out: EC50 on P. falciparum 7G8), 0.47 nM; in the data set on P. falciparum Dd2 (DD2, read-out: EC50 on P. falciparum Dd2) it was 1.9 nM; with A549 human cells (Homo sapiens, A549, in vitro toxicity), 14600 ± 175 nM.

Regarding `CCOP(=O)(/C=C/C(NC(=O)[C@H](Cc1ccccc1)NC(=O)[C@H](CO[C@H]1O[C@@H]2O[C@@]3(C)CC[C@H]4[C@H](C)CC[C@@H]([C@H]1C)[C@@]24OO3)NC(=O)OCc1ccccc1)c1ccccc1)OCC` (stereo partly drawn) [Compound 2, Benzyl ((2S)-1-(((2S)-1-(((E)-3-(diethoxyphosphoryl)-1-phenylallyl)amino)-1-oxo-3-phenylpropan-2-yl)amino)-1-oxo-3-(((3R,5aS,6R,8aS,9R,10S,12R,12 aR)-3,6,9-trimethyldeca hydro-12H-3,12-epoxy[1,2]dioxepino[4,3-i]isochromen-10-yl)oxy)propan-2-yl)carbamate], in the data set with P. berghei (12.5 mg/kg of body weight), the “protection in treated group of mice” value was found to be 100%. Besides, in the data set on P. berghei, the “Complete Protection - Mice with complete parasite clearance” value was 80% of treated mice and the Survival after treatment is above 60 days. For the same molecule, the “in vitro toxicity on A549 human cells (in words)” value in the data set on A549 human cells was “non-toxic”.

Regarding `CCOP(=O)(/C=C/[C@H](NC(=O)[C@H](CC(C)C)NC(=O)[C@H](CO[C@H]1O[C@@H]2OC3(C)CC[C@H]4[C@H](C)CC[C@@H]([C@H]1C)[C@@]24OO3)NC(=O)OCc1ccccc1)c1ccccc1)OCC` (stereo in doubt) [Compound 3b, Benzyl ((S)-1-(((S)-1-(((S,E)-3-(diethoxyphosphoryl)-1-phenylallyl)amino)-4-methyl-1-oxopentan-2-yl)amino)-1-oxo-3-(((3R,5aS,6R,8aS,9R,10S,12R,12aR)-3,6,9-trimethyldeca hydro-12H-3,12-epoxy[1,2]dioxepino[4,3-i]isochromen-10-yl)oxy)propan-2-yl)carbamate], in the data set on P. falciparum 3D7 (3D7, 48 h), the EC50 is 16.7 nM.

Consider `CCOP(=O)(/C=C/[C@H](NC(=O)[C@H](Cc1ccccc1)NC(=O)[C@H](CO[C@H]1O[C@@H]2O[C@@]3(C)CC[C@H]4[C@H](C)CC[C@@H]([C@H]1C)[C@@]24OO3)NC(=O)OCc1ccccc1)c1ccccc1)OCC` [Compound 2b, Benzyl ((S)-1-(((S)-1-(((S,E)-3-(diethoxyphosphoryl)-1-phenylallyl)amino)-1-oxo-3-phenylpropan-2-yl)amino)-1-oxo-3-(((3R,5aS,6R,8aS,9R,10S,12R,12aR)-3,6,9-trimethyldeca hydro-12H-3,12-epoxy[1,2]dioxepino[4,3-i]isochromen-10-yl)oxy)propan-2-yl)carbamate], for which, in the data set on P. falciparum 3D7 (3D7, 48 h), the EC50 is 2.03 nM.

On to `CCOP(=O)(/C=C/[C@@H](NC(=O)[C@H](Cc1ccccc1)NC(=O)[C@H](CO[C@H]1O[C@@H]2O[C@@]3(C)CC[C@H]4[C@H](C)CC[C@@H]([C@H]1C)[C@@]24OO3)NC(=O)OCc1ccccc1)c1ccccc1)OCC` [Compound 2a, Benzyl ((S)-1-(((S)-1-(((R,E)-3-(diethoxyphosphoryl)-1-phenylallyl)amino)-1-oxo-3-phenylpropan-2-yl)amino)-1-oxo-3-(((3R,5aS,6R,8aS,9R,10S,12R,12aR)-3,6,9-trimethyldeca hydro-12H-3,12-epoxy[1,2]dioxepino[4,3-i]isochromen-10-yl)oxy)propan-2-yl)carbamate], for which the EC50 with P. falciparum 3D7 (3D7, 48 h) worked out at 0.95 nM.

For the molecule `CCOP(=O)(/C=C/[C@H](NC(=O)[C@H](CC(C)C)NC(=O)[C@@H]1C[C@@H](O[C@H]2O[C@@H]3OC4(C)CC[C@H]5[C@H](C)CC[C@@H]([C@H]2C)[C@@]35OO4)CN1C(=O)OCc1ccccc1)c1ccccc1)OCC` (stereo in doubt) [Compound 5b, Benzyl (2S,4R)-2-(((S)-1-(((S,E)-3-(diethoxyphosphoryl)-1-phenylallyl)amino)-4-methyl-1-oxopentan-2-yl)carbamoyl)-4-(((3R,5aS,6R,8aS,9R,10S,12R,12aR)-3,6,9-trimethyldeca hydro-12H-3,12-epoxy[1,2]dioxepino[4,3-i]isochromen-10-yl)oxy)pyrrolidine-1-carboxylate], the EC50 in the data set with P. falciparum 3D7 (3D7, 48 h) was determined as 6.12 nM.

With `CCOP(=O)(/C=C/C(NC(=O)[C@H](Cc1ccccc1)NC(=O)[C@@H]1C[C@@H](O[C@H]2O[C@@H]3OC4(C)CC[C@H]5[C@H](C)CC[C@@H]([C@H]2C)[C@@]35OO4)CN1C(=O)OCc1ccccc1)c1ccccc1)OCC` (stereo in doubt) [Compound 6, Benzyl (2S,4R)-2-(((2S)-1-(((E)-3-(diethoxyphosphoryl)-1-phenylallyl)amino)-1-oxo-3-phenylpropan-2-yl)carbamoyl)-4-(((3R,5aS,6R,8aS,9R,10S,12R,12aR)-3,6,9-trimethyldecahydro-12H-3,12-epoxy[1,2]dioxepino[4,3-i]isochromen-10-yl)oxy)pyrrolidine-1-carboxylate], at falcipain-2, the “activity” value was “inactive”.
